Results from article PMC5505983, “Naringenin Impairs Two-Pore Channel 2 Activity And Inhibits VEGF-Induced Angiogenesis” (Scientific Reports, 2017).

Key:
[1] = molecular target: T1, hTPC1 (Homo sapiens, UniProt Q9ULQ1); experiment: whole-vacuole patch clamp, current activation; format: biochemical; conditions: activator; 90 nM cytosolic side; diC8 form; pH 7.5 cytosolic, pH 5.5 vacuolar
T1 construct: gene TPCN1; full-length with C-terminal EGFP, plasmid pSAT-hTPC1-EGFP; transiently expressed in vacuoles of Arabidopsis thaliana tpc1-2 mutant mesophyll protoplasts; dimer

[2] = molecular target: T2, hTPC2 (Homo sapiens, UniProt Q8NHX9); experiment: whole-vacuole patch clamp, dose-response of current inhibition; format: cell-based; conditions: read-out: apparent affinity constant
T2 construct: gene TPCN2; full-length with C-terminal EGFP, plasmid pSAT-hTPC2-EGFP; transiently expressed in vacuoles of Arabidopsis thaliana tpc1-2 mutant mesophyll protoplasts; dimer
T2 sequence (Q8NHX9 whole entry): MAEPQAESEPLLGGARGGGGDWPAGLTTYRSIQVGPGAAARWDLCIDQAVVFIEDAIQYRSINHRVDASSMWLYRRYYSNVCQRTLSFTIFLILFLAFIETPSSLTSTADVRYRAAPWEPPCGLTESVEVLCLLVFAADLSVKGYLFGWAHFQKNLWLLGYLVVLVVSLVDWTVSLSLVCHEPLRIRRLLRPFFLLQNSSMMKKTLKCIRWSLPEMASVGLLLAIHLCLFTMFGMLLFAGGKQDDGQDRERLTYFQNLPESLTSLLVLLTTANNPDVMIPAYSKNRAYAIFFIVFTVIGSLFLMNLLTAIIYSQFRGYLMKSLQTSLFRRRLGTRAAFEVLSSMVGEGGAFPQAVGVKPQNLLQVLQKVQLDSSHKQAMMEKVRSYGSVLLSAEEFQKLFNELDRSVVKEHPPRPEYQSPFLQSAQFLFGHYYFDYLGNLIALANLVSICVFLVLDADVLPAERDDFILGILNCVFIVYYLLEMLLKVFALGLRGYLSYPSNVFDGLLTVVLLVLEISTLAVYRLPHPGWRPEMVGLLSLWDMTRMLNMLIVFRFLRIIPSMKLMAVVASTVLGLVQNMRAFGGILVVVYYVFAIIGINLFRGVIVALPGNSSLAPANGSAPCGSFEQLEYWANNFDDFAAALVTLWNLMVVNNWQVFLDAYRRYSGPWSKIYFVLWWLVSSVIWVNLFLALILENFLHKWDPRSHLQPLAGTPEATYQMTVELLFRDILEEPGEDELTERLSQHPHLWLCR

| IC50 [2] [µM] | Structure (SMILES) | whole-vacuole patch clamp, current activation [1] |
| --- | --- | --- |
|  | CCCCCCCC(=O)OC[C@H](COP(=O)(O)O[C@@H]1[C@H](O)[C@H](OP(=O)(O)O)[C@@H](O)[C@H](OP(=O)(O)O)[C@H]1O)OC(=O)CCCCCCC [PI(3,5)P2] | very small in comparison to those elicited by the addition of the phosphoinositide |
| 180 ± 20 | O=C1C[C@@H](c2ccc(O)cc2)Oc2cc(O)cc(O)c21 [Nar, 5,7-dihydroxy-2-(4-hydroxyphenyl)chroman-4-one] |  |
